Counter-ions that a name gives are not always drawn. A value given as a limit tells only on which side of the number the result lay.

This assay addresses T1, human EP1 receptor (Homo sapiens, UniProt P34995).
T1 sequence (P34995 1-402): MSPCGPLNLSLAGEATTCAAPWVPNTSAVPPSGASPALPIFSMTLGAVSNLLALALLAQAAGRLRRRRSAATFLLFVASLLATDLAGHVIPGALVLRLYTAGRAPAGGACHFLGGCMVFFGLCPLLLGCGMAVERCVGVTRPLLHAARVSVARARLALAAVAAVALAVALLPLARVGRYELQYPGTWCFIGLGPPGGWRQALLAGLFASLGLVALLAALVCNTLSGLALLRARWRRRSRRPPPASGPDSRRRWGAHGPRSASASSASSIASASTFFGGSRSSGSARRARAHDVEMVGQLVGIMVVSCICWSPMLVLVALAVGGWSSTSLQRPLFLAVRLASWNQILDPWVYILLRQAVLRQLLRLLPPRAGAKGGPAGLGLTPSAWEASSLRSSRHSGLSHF
The assay is described as follows: Binding assay for the human prostanoid EP1 receptor (radioligand competition). The note with it: CHO-K1 membranes; [3H]-PGE2 for Examples 1-17, 19, 33, 34, 60 and 61, 3-{2-[5-Bromo-2-(2,4-difluorobenzyloxy)-phenyl]-5-methyl-pyrrol-1-yl}-6-[3H3-methoxy]methoxy-benzoic acid for the remaining; averages of a number of experiments; read-out: pIC50 value (binding assay for the human prostanoid EP1 receptor) (converted). Also noted: expressed in transfected cells; host or cells: CHO-K1 (membranes). In short, it runs like this:
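Membranes from CHO-K1 cells stably expressing human EP1, in pH 6 MES buffer with 10 mM MgCl2. Competition with [3H]-PGE2 (3 nM final) for 30 min at 30 °C, or alternatively with a tritiated benzoic-acid ligand (0.2 nM final) for 45 min at 37 °C; filtration and scintillation counting, IC50 by non-linear fitting.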
On the technique in general: Displacement assays read how much labelled ligand stays bound in the presence of the test substance.

As for `CC(C)c1cc2cc(Cl)cc(Cc3ccc(C(=O)O)o3)c2o1` [Example 1, 5-{[5-Chloro-2-(1-methylethyl)-1-benzofuran-7-yl]methyl}-2-furancarboxylic Acid], the IC50 was at most 100 nM.
For `Cc1cc(C(=O)O)nn1Cc1cc(Cl)cc2cc(C(C)C)oc12` [Example 3, 1-{[5-Chloro-2-(1-methylethyl)-1-benzofuran-7-yl]methyl}-5-methyl-1H-pyrazole-3-carboxylic Acid] the value was at most 100 nM; for `CCNCc1ccc(NC(=O)c2cc(C)n(Cc3cc(Cl)cc4cc(C(C)C)oc34)n2)cc1` [Example 15, 1-{[5-Chloro-2-(1-methylethyl)-1-benzofuran-7-yl]methyl}-N-{4-[(ethylamino)methyl]phenyl}-5-methyl-1H-pyrazole-3-carboxamide hydrochloride], at most 100 nM; for `Cc1cc(C(=O)Nc2ccc(CN3CCC(O)CC3)cc2)nn1Cc1cc(Cl)cc2cc(C(C)C)oc12` [Example 16, 1-{[5-Chloro-2-(1-methylethyl)-1-benzofuran-7-yl]methyl}-N-{4-[(4-hydroxy-1-piperidinyl)methyl]phenyl}-5-methyl-1H-pyrazole-3-carboxamide hydrochloride], at most 100 nM.
For `Cc1cc(C(=O)Nc2ccc(CN3CC[C@@H](O)C3)cc2)nn1Cc1cc(Cl)cc2cc(C(C)C)oc12` [Example 17, 1-{[5-Chloro-2-(1-methylethyl)-1-benzofuran-7-yl]methyl}-N-(4-{[(3R)-3-hydroxy-1-pyrrolidinyl]methyl}phenyl)-5-methyl-1H-pyrazole-3-carboxamide hydrochloride] the value was at most 100 nM; for `Cc1cc(C(=O)NN2CCOCC2)nn1Cc1cc(Cl)cc2cc(C3CCCCC3)oc12` [Example 28, 1-[(5-Chloro-2-cyclohexyl-1-benzofuran-7-yl)methyl]-5-methyl-N-4-morpholinyl-1H-pyrazole-3-carboxamide], at most 100 nM.

The record behind these values is patent US20090099169A1, “Benzofuran Compounds As EP1 Receptor Antagonists” (GLAXO GROUP LIMITED, priority 2006, published 2009).
